# Reference: patent publication US20100111874A1, “METHOD OF CANCER DETECTION AND TREATMENT” (University of Medicine and Dentistry of New Jresey, priority 2007, published 2010)
# How the values were obtained:
# [1] = target: T1, TOP1-DNA covalent complexes (Homo sapiens, UniProt P11387); assay: Band depletion assay for TOP1 cleavage complexes; format: cell-based; settings: MCF7/RC vs MCF7; CPT 25 μM for 15 min
# T1 construct: endogenous in cells; host or cells: MCF7 and MCF7/RC breast cancer cells
# T1 sequence (P11387 2-765 limits assumed): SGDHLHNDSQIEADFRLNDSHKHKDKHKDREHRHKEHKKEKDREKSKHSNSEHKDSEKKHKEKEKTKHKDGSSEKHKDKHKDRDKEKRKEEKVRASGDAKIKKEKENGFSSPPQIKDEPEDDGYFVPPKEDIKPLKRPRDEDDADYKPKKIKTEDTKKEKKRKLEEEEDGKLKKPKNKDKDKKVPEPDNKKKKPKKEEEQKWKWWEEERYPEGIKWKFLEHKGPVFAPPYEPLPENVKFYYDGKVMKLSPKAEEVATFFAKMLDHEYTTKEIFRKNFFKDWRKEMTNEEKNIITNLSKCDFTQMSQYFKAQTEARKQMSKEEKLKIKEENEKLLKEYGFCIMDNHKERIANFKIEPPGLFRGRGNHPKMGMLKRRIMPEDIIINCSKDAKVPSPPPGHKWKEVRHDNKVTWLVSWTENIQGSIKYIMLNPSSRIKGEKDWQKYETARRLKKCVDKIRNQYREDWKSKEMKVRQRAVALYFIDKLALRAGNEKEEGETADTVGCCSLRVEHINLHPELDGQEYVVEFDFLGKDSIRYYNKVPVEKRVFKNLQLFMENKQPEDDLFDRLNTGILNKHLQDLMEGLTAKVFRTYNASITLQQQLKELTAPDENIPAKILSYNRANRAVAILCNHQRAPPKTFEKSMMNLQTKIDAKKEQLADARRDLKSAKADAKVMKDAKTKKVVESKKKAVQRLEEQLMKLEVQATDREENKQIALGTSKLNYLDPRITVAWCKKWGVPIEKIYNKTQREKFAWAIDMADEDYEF
# Description: Band depletion assay for TOP1 cleavage complexes. Cells (106/sample) are treated with CPT (25 μM in 1% DMSO) for various times at 37° C. Cells are then lysed with 0.2 N NaOH containing 2 mM EDTA as described previously (14). Cell lysates are then neutralized with 1/10 volume of a solution containing 10% NP-40, 1 M Tris (pH 7.4), 0.1 M MgCl2, 0.1 M CaCl2, 10 mM dithiothreitol, 1 mM EGTA, and a mixture of peptide protease inhibitors (100 μg/ml each of leupeptin, pepstatin, and aprotinin), followed by the addition of another 1/10 volume of 2 N HCl. Reactions are terminated by the addition of SDS-PAGE sample buffer. Immunoblotting analysis of cell lysates is carried out using anti-Scl-70 antibody from scleroderma patients as described above.
# [2] = system: ZR-75-1 and BT474 breast cancer cells; assay: Cell counting assay of CPT sensitivity; format: cell-based; settings: ZR-75-1 vs BT474 cells; one hr acute exposure
# Description: Cell survival assays. MTT assay: Cells (3000 cells/well) are plated in 96-well microtiter plates and incubated at 37° C. in a CO2 incubator. For determination of IC50, cells are treated with varying concentrations of CPT for four days. Cells are then incubated with MTT (3-(4,5-dimethylthiazol-2-yl)-2,5-diphenyltetrazolium bromide) for 4 hrs at 37° C. The dye produced by viable cells is dissolved in DMSO and the optical density measured at 570 nm. All assays are performed at least twice in six replicate wells. Clonogenic assay: Cells (100-500 cells/plate) are plated in 6-well tissue culture plates and incubated at 37° C. in a CO2 incubator. Cells are then treated with various concentrations of CPT for 1 hr. Following CPT treatment, cells are washed free of CPT and placed in fresh medium. After 10 days, survived colonies are stained with Methylene blue and counted using the Minicount machine. Cell counting assay: Logarithmically growing cells are treated with various concentrations of CPT for 1 hr. CPT is then removed by washing the plates with CPT-free medium four times. […] Cell survival is determined by counting cells using the Coulter counter after trypsinization.
# Breast cancer ZR-75-1 and BT474 cells are treated with CPT for 1 hr followed by incubation in CPT-free medium for 3 days. Cell survival is determined by cell counting using a Coulter counter as described in Materials and Methods.
smiles,measurement,setting,value
"CC[C@@]1(O)C(=O)OCc2c1cc1n(c2=O)Cc2cc3ccccc3nc2-1 [CPT, camptothecin]",amount of TOP1-DNA covalent complexes,[1],No change
same,fold greater sensitivity to CPT based on IC50 values,[2],greater than 50 fold
